The record followed here is US20250186437A1, “CARBOLINE COMPOUNDS AND USE THEREOF” (PTC Therapeutics, Inc., priority 2021, published 2025).

The IC50 is the concentration that inhibits the measured activity by half.

This experiment has as its system MOLM-13 cells. Put plainly: MOLM-13 Cell Proliferation Assay (indicator of DHODH inhibition). It is filed as cell-based. Particulars: Homo sapiens, 72 Hours of culture, CellTiter-Glo, no uridine. Summed up: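 Low-passage MOLM-13 cells (10^4/well) in RPMI 1640 + 10% FBS exposed to compound (0.5% DMSO final) for 72 h at 37 °C, 5% CO2. Viability read by CellTiter-Glo luminescence; growth reflects de novo pyrimidine synthesis dependent on DHODH.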
A general note: In ATP-based viability assays light output follows the ATP content of the culture.

Consider `Cc1nc(N2CCc3c([nH]c4ccc(Cl)cc34)C2c2ccc(C)c(F)c2F)nc(C(F)(F)F)n1` (stereo not shown) [Compound 438, 6-chloro-1-(2,3-difluoro-4-methylphenyl)-2-[4-methyl-6-(trifluoromethyl)-1,3,5-triazin-2-yl]-2,3,4,9-tetrahydro-1H-pyrido[3,4-b]indole], for which the IC50 was 0.6 nM. For `Cc1cc(C#N)nc(N2CCc3c([nH]c4cc(F)c(Cl)cc34)C2c2ccc(C)c(F)c2F)n1` (stereo not shown) [Compound 153, 2-[6-chloro-1-(2,3-difluoro-4-methylphenyl)-7-fluoro-1,3,4,9-tetrahydro-2H-pyrido[3,4-b]indol-2-yl]-6-methylpyrimidine-4-carbonitrile] the value was 1.1 nM.

In turn, `FC(F)(F)c1nc(N2CCc3c([nH]c4ccc(Cl)cc34)C2c2ccc(N3CCOCC3)nc2)nc(C(F)(F)F)n1` (stereo not shown) [Compound 404, 2-[4,6-bis(trifluoromethyl)-1,3,5-triazin-2-yl]-6-chloro-1-[6-(morpholin-4-yl)pyridin-3-yl]-2,3,4,9-tetrahydro-1H-pyrido[3,4-b]indole] came in with an IC50 of 0.4 nM. For `Fc1cnc(N2CCc3c([nH]c4ccc(Cl)c(F)c34)C2c2ccc(Cl)cc2)nc1` (stereo not shown) [Compound 26, 6-chloro-1-(4-chlorophenyl)-5-fluoro-2-(5-fluoropyrimidin-2-yl)-2,3,4,9-tetrahydro-1H-pyrido[3,4-b]indole] the value was 18.9 nM; for `CN(C)c1ncc(C2c3[nH]c4ccc(Cl)c(F)c4c3CCN2c2nccc(C(F)(F)F)n2)cc1F` (stereo not shown) [Compound 160, 5-{6-chloro-5-fluoro-2-[4-(trifluoromethyl)pyrimidin-2-yl]-2,3,4,9-tetrahydro-1H-pyrido[3,4-b]indol-1-yl}-3-fluoro-N,N-dimethylpyridin-2-amine], 3.5 nM. In the case of `Cc1cc(C(F)(F)F)nc(N2CCc3c([nH]c4ccc(Cl)cc34)[C@H]2c2ccc(C)c(F)c2F)n1` [Compound 204, (1R)-6-chloro-1-(2,3-difluoro-4-methylphenyl)-2-[4-methyl-6-(trifluoromethyl)pyrimidin-2-yl]-2,3,4,9-tetrahydro-1H-pyrido[3,4-b]indole] it was 39.8 nM; in that of `Cc1nc(N(C)C)nc(N2CCc3c([nH]c4ccc(Cl)cc34)C2c2cnc(N3CCOCC3)nc2)n1` (stereo not shown) [Compound 290, 4-{6-chloro-1-[2-(morpholin-4-yl)pyrimidin-5-yl]-1,3,4,9-tetrahydro-2H-pyrido[3,4-b]indol-2-yl}-N,N,6-trimethyl-1,3,5-triazin-2-amine], 19.7 nM. On to `CN1CCN(c2ncc([C@H]3c4[nH]c5ccc(Cl)cc5c4CCN3c3nc(N4CCOCC4)nc(C(F)(F)F)n3)cn2)CC1` [Compound 509, (1S)-6-chloro-1-[2-(4-methylpiperazin-1-yl)pyrimidin-5-yl]-2-[4-(morpholin-4-yl)-6-(trifluoromethyl)-1,3,5-triazin-2-yl]-2,3,4,9-tetrahydro-1H-pyrido[3,4-b]indole], for which half-maximal inhibition (IC50) was put at 8.1 nM. For `FC(F)(F)c1ccnc(N2CCc3c([nH]c4ccc(Br)cc34)C2c2cnc(N3CCOCC3)nc2)n1` (stereo not shown) [Compound 298, 6-bromo-1-[2-(morpholin-4-yl)pyrimidin-5-yl]-2-[4-(trifluoromethyl)pyrimidin-2-yl]-2,3,4,9-tetrahydro-1H-pyrido[3,4-b]indole] the value was 1.2 nM. In the case of `FC(F)(F)c1cc(C(F)(F)F)nc(N2CCc3c([nH]c4ccc(-n5nccn5)cc34)C2c2cnc(N3CCOCC3)nc2)n1` (stereo not shown) [Compound 482, 2-[4,6-bis(trifluoromethyl)pyrimidin-2-yl]-1-[2-(morpholin-4-yl)pyrimidin-5-yl]-6-(2H-1,2,3-triazol-2-yl)-2,3,4,9-tetrahydro-1H-pyrido[3,4-b]indole] it was 0.8 nM. As to `OCc1ccc(C2c3[nH]c4cc(F)c(Cl)cc4c3CCN2c2ncc(F)cn2)cc1` (stereo not shown) [Compound 78, {4-[6-chloro-7-fluoro-2-(5-fluoropyrimidin-2-yl)-2,3,4,9-tetrahydro-1H-pyrido[3,4-b]indol-1-yl]phenyl}methanol], half-maximal inhibition (IC50) was put at 46.9 nM.

`Fc1ncccc1C1c2[nH]c3ccc(Cl)c(F)c3c2CCN1c1nccc(C(F)(F)F)n1` (stereo not shown) [Compound 226, 6-chloro-5-fluoro-1-(2-fluoropyridin-3-yl)-2-[4-(trifluoromethyl)pyrimidin-2-yl]-2,3,4,9-tetrahydro-1H-pyrido[3,4-b]indole] gave an IC50 of 25.4 nM. Compared with the last compound, the IC50 is about 1.8-fold lower. `Cc1ccc(C2c3[nH]c4ccc(Cl)cc4c3CCN2c2nc(Cl)cc(Cl)n2)cc1` (stereo not shown) [Compound 7, 6-chloro-2-(4,6-dichloropyrimidin-2-yl)-1-(4-methylphenyl)-2,3,4,9-tetrahydro-1H-pyrido[3,4-b]indole] had an IC50 of 0.6 nM. For `COCCOc1ncc(C2c3[nH]c4ccc(Cl)cc4c3CCN2c2nc(C(F)(F)F)nc(C(F)(F)F)n2)cn1` (stereo not shown) [Compound 536, 2-[4,6-bis(trifluoromethyl)-1,3,5-triazin-2-yl]-6-chloro-1-[2-(2-methoxyethoxy)pyrimidin-5-yl]-2,3,4,9-tetrahydro-1H-pyrido[3,4-b]indole] the value was 1.2 nM; for `N#Cc1cc(C(F)(F)F)nc(N2CCc3c([nH]c4ccc(Cl)cc34)[C@@H]2c2cnc(N3CCOCC3)nc2)n1` [Compound 434, 2-{(1S)-6-chloro-1-[2-(morpholin-4-yl)pyrimidin-5-yl]-1,3,4,9-tetrahydro-2H-pyrido[3,4-b]indol-2-yl}-6-(trifluoromethyl)pyrimidine-4-carbonitrile], 1.2 nM. In the case of `Cc1ccc(C2c3[nH]c4ccc(F)cc4c3CCN2c2nccc(C(F)(F)F)n2)c(F)c1F` (stereo not shown) [Compound 493, 1-(2,3-difluoro-4-methylphenyl)-6-fluoro-2-[4-(trifluoromethyl)pyrimidin-2-yl]-2,3,4,9-tetrahydro-1H-pyrido[3,4-b]indole] it was 25 nM; in that of `Fc1cnc(N2CCc3c([nH]c4ccc(Cl)cc34)C2c2ccc(N3CCOCC3)nc2)nc1` (stereo not shown) [Compound 382, 6-chloro-2-(5-fluoropyrimidin-2-yl)-1-[6-(morpholin-4-yl)pyridin-3-yl]-2,3,4,9-tetrahydro-1H-pyrido[3,4-b]indole], 13.4 nM. In the case of `Fc1c(Cl)ccc2[nH]c3c(c12)CCN(c1nccc(C(F)(F)F)n1)C3c1cccnc1` (stereo not shown) [Compound 202, 6-chloro-5-fluoro-1-(pyridin-3-yl)-2-[4-(trifluoromethyl)pyrimidin-2-yl]-2,3,4,9-tetrahydro-1H-pyrido[3,4-b]indole] it was 16.2 nM; in that of `Clc1ccc2[nH]c3c(c2c1)CCN(c1ncc(Br)cn1)[C@H]3c1cnc(N2CCOCC2)nc1` [Compound 470, (1S)-2-(5-bromopyrimidin-2-yl)-6-chloro-1-[2-(morpholin-4-yl)pyrimidin-5-yl]-2,3,4,9-tetrahydro-1H-pyrido[3,4-b]indole], 3.1 nM. For the compound `Fc1cnc(N2CCc3c([nH]c4cc(F)c(Cl)cc34)C2c2cccc(F)c2F)nc1` (stereo not shown) [Compound 36, 6-chloro-1-(2,3-difluorophenyl)-7-fluoro-2-(5-fluoropyrimidin-2-yl)-2,3,4,9-tetrahydro-1H-pyrido[3,4-b]indole], the midpoint of inhibition, the IC50, lay at 23.4 nM.

Take `Cc1ccc(C2c3[nH]c4ccc(Cl)c(F)c4c3CCN2c2nc(C)cc(C#N)n2)cc1` (stereo not shown) [Compound 110, 2-[6-chloro-5-fluoro-1-(4-methylphenyl)-1,3,4,9-tetrahydro-2H-pyrido[3,4-b]indol-2-yl]-6-methylpyrimidine-4-carbonitrile]: the IC50 amounted to 2.8 nM. In the case of `Cc1nc(C)nc(N2CCc3c([nH]c4ccc(Cl)cc34)C2c2ccc(F)cc2)n1` (stereo not shown) [Compound 450, 6-chloro-2-(4,6-dimethyl-1,3,5-triazin-2-yl)-1-(4-fluorophenyl)-2,3,4,9-tetrahydro-1H-pyrido[3,4-b]indole] it was 29.8 nM; in that of `N#Cc1ccc(C2c3[nH]c4ccc(Cl)c(F)c4c3CCN2c2nccc(C(F)(F)F)n2)cc1` (stereo not shown) [Compound 89, 4-{6-chloro-5-fluoro-2-[4-(trifluoromethyl)pyrimidin-2-yl]-2,3,4,9-tetrahydro-1H-pyrido[3,4-b]indol-1-yl}benzonitrile], 5.7 nM; in that of `FC(F)(F)c1ccnc(N2CCc3c([nH]c4ccc(Cl)cc34)C2c2ccc(-n3cnnc3)cc2)n1` (stereo not shown) [Compound 269, 6-chloro-1-[4-(4H-1,2,4-triazol-4-yl)phenyl]-2-[4-(trifluoromethyl)pyrimidin-2-yl]-2,3,4,9-tetrahydro-1H-pyrido[3,4-b]indole], 98.2 nM. In turn, `Oc1cc2[nH]c3c(c2cc1Cl)CCN(c1nccc(C(F)(F)F)n1)C3c1ccc(Cl)cc1` (stereo not shown) [Compound 250, 6-chloro-1-(4-chlorophenyl)-2-[4-(trifluoromethyl)pyrimidin-2-yl]-2,3,4,9-tetrahydro-1H-pyrido[3,4-b]indol-7-ol] returned a half-maximal inhibitory concentration (IC50) of 86.1 nM. This IC50 and that of the compound before are within 1.5-fold of each other.
